{
  "source": "paper PMC8956739",
  "about": "“A synthetic lipopeptide targeting top-priority multidrug-resistant Gram-negative pathogens” (Nature Communications, 2022)",
  "key": {"Swiss mice, kidney": {"system": "Swiss mice, kidney", "assay": "Nephrotoxicity in mice (kidney histopathology)", "type": "in vivo, mouse", "method_in_brief": "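Female Swiss mice (7-week-old, 22–28 g) received lipopeptides in saline either s.c. at 12 mg/kg ×6 every 2 h (total 72 mg/kg, n = 3) or i.p. at 20 or 25 mg/kg ×6 every 2 h (total 120 mg/kg, n = 6; 150 mg/kg, n = 3). Right kidney collected 20 h after last dose, fixed in 10% buffered formalin (pH 7.4), histology scored blinded.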"}, "A. baumannii AB5075 [1]": {"system": "A. baumannii AB5075", "assay": "In vitro passaging, emergence of resistance", "type": "cell-based, Acinetobacter baumannii", "details": "for OD600: 8 ug/mL", "protocol": "Log-phase cultures (OD600 = 0.5, ~10^8 CFU/mL) of A. baumannii AB5075 were inoculated (1:10, v/v) in 200 μL fresh CaMHB (cation-adjusted Mueller–Hinton broth) containing 2, 8 and 16 μg/mL polymyxin B, colistin, F287, and F365 in a 96-well microplate with 4 biological replicates. The cultures were incubated at 37 °C for 12 h before the next dilution (1:10, v/v) with fresh CaMHB. Successive subculturing was conducted for 7 days."}, "A. baumannii ATCC 19606": {"system": "A. baumannii ATCC 19606", "type": "cell-based, Acinetobacter baumannii", "details": "ATCC 19606", "method_in_brief": "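Read-out is the minimum inhibitory concentration, obtained by serially diluting compound in cation-adjusted Mueller–Hinton medium and exposing each isolate in microdilution format.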"}, "A. baumannii FADDI-AB030": {"system": "A. baumannii FADDI-AB030", "type": "cell-based, Acinetobacter baumannii", "details": "FADDI-AB030", "method_in_brief": "(§1)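 Compounds were serially diluted in CaMHB, bacteria were added, and the lowest inhibitory concentration was recorded after broth microdilution testing.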"}, "[2]": {"system": "MDR clinical isolates of A. baumannii (n = 210, 200 carbapenem-resistant)", "type": "cell-based, Acinetobacter baumannii", "method_in_brief": "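Broth microdilution, CaMHB; MIC read as the antibacterial endpoint against ATCC reference strains and clinical isolates.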"}, "A. baumannii AB5075 [3]": {"system": "A. baumannii AB5075", "type": "cell-based, Acinetobacter baumannii", "details": "AB5075", "method_in_brief": "as §1"}, "A. baumannii FADDI-AB034": {"system": "A. baumannii FADDI-AB034", "type": "cell-based, Acinetobacter baumannii", "details": "FADDI-AB034", "method_in_brief": "as §1"}, "in vitro": {"assay": "in vitro", "type": "cell-based, human", "details": "human, wild-type HK-2 cells (kidney proximal tubular), Cell viability, WT", "protocol": "Fig. 6 Transcriptomic changes in human kidney proximal tubular HK-2 cells following treatments with polymyxin B (PMB), colistin (COL), F287, F319, and F365. a Numbers of differentially expressed genes. Distinctive intersections are color-coded. b Cell viability difference (two-tailed Student’s t-test, n = 4 biologically independent cells, Benjamini–Hochberg adjusted P-values) between wild-type HK-2 and KCNJ16 knockout (KO) cells following 24 h treatment with lipopeptides. n.s., not significant; ^*adjusted P < 0.05, ^**adjusted P < 0.01, ^***adjusted P < 0.001. Data are shown as mean ± s.d. and individual data points. c Extracted transcriptional regulatory network from Signor database with 1-step neighbor constraints (enlarged for detail). Source data are provided as a Source Data file."}, "[4]": {"details": "MDR clinical isolates of (n = 210, 200 carbapenem-resistant)"}},
  "note": "Several values for one entry are separate records, joined by “and”; a condition that tells them apart may be missing. Identical values can stand only once. Like-named read-outs stand apart in the source and are kept apart here. Residues, ends and D or L forms follow the SMILES beside them.",
  "data": [
    {"smiles": "CCCCCCCC(=O)N[C@@H](CCN)C(=O)N[C@H](C(=O)N[C@@H](CN)C(=O)N[C@H]1CCNC(=O)[C@H]([C@@H](C)O)NC(=O)[C@H](CCN)NC(=O)[C@H](CCN)NC(=O)[C@H](CC)NC(=O)[C@@H](CC(C)C)NC(=O)[C@H](CCN)NC1=O)[C@@H](C)O", "note": "[Lipopeptide F287] (HELM PEPTIDE1{[CCCCCCCC(=O)[*:2]].[Dab].T.[NC[C@H](N[*:1])C(=O)[*:2]].[Dab].[Dab].[dL].[Abu].[Dab].[Dab].T}$PEPTIDE1,PEPTIDE1,5:R3-11:R2$$$V2.0)", "values": [
      {"measurement": "Kidney histopathology (SQS Score)", "setting": "Swiss mice, kidney; 72 mg/kg/d subcutaneously in six divided doses every 2 h, n = 3", "result": "0 (SQS 0 = no significant change (overall score, <1))"},
      {"measurement": "Kidney histopathology, mice with the SQS score", "setting": "Swiss mice, kidney; mouse, in vivo", "result": "3/3"},
      {"measurement": "Kidney histological damage, mice with the given grade", "setting": "Swiss mice, kidney; mouse, in vivo, ip, 120 mg/kg/day", "result": "2/6"},
      {"measurement": "OD600", "setting": "A. baumannii AB5075 [1]; time 0 h, passage 0, replicates rep1-rep4, raw OD600 (blank OD600 0.125333)", "result": "0.15 and 0.135 and 0.14"},
      {"measurement": "OD600", "setting": "A. baumannii AB5075 [1]; time 12 h, passage 1, replicates rep1-rep4, raw OD600 (blank OD600 0.114667)", "result": "0.134 and 0.126 and 0.13 and 0.129"},
      {"measurement": "OD600", "setting": "A. baumannii AB5075 [1]; time 24 h, passage 2, replicates rep1-rep4, raw OD600 (blank OD600 0.0956667)", "result": "0.091 and 0.089 and 0.086"},
      {"measurement": "OD600", "setting": "A. baumannii AB5075 [1]; time 36 h, passage 3, replicates rep1-rep4, raw OD600 (blank OD600 0.088)", "result": "0.088 and 0.089 and 0.095"},
      {"measurement": "OD600", "setting": "A. baumannii AB5075 [1]; time 48 h, passage 4, replicates rep1-rep4, raw OD600 (blank OD600 0.104667)", "result": "0.095 and 0.092 and 0.093 and 0.111"},
      {"measurement": "OD600", "setting": "A. baumannii AB5075 [1]; time 60 h, passage 5, replicates rep1-rep4, raw OD600 (blank OD600 0.122333)", "result": "0.105 and 0.107 and 0.117"},
      {"measurement": "OD600", "setting": "A. baumannii AB5075 [1]; time 72 h, passage 6, replicates rep1-rep4, raw OD600 (blank OD600 0.095)", "result": "0.097 and 0.09 and 0.087"},
      {"measurement": "OD600", "setting": "A. baumannii AB5075 [1]; time 84 h, passage 7, replicates rep1-rep4, raw OD600 (blank OD600 0.091)", "result": "0.094 and 0.097 and 0.099 and 0.113"},
      {"measurement": "OD600", "setting": "A. baumannii AB5075 [1]; time 96 h, passage 8, replicates rep1-rep4, raw OD600 (blank OD600 0.0953333)", "result": "0.111 and 0.113 and 0.11 and 0.117"},
      {"measurement": "OD600", "setting": "A. baumannii AB5075 [1]; time 108 h, passage 9, replicates rep1-rep4, raw OD600 (blank OD600 0.100667)", "result": "0.115 and 0.107 and 0.116"},
      {"measurement": "OD600", "setting": "A. baumannii AB5075 [1]; time 120 h, passage 10, replicates rep1-rep4, raw OD600 (blank OD600 0.0983333)", "result": "0.108 and 0.113 and 0.118"},
      {"measurement": "OD600", "setting": "A. baumannii AB5075 [1]; time 132 h, passage 11, replicates rep1-rep4, raw OD600 (blank OD600 0.0843333)", "result": "0.121 and 0.108 and 0.118 and 0.122"},
      {"measurement": "OD600", "setting": "A. baumannii AB5075 [1]; time 144 h, passage 12, replicates rep1-rep4, raw OD600 (blank OD600 0.091)", "result": "0.116 and 0.114 and 0.12"},
      {"measurement": "OD600", "setting": "A. baumannii AB5075 [1]; time 156 h, passage 13, replicates rep1-rep4, raw OD600 (blank OD600 0.129)", "result": "0.118 and 0.12 and 0.113 and 0.116"},
      {"measurement": "OD600", "setting": "A. baumannii AB5075 [1]; time 168 h, passage 14, replicates rep1-rep4, raw OD600 (blank OD600 0.101)", "result": "0.096 and 0.095 and 0.092 and 0.117"},
      {"measurement": "time to emergence of resistance", "setting": "A. baumannii AB5075 [1]; 4× MIC, 7-day passaging", "result": "≤ 3", "unit": "days"},
      {"measurement": "growth over 7 days", "setting": "A. baumannii AB5075 [1]; 32× MIC", "result": "No growth"},
      {"measurement": "MIC A. baumannii ATCC 19606", "setting": "A. baumannii ATCC 19606", "result": 0.25, "unit": "µg/mL"},
      {"measurement": "MIC A. baumannii FADDI-AB030", "setting": "A. baumannii FADDI-AB030", "result": 0.25, "unit": "µg/mL"},
      {"measurement": "MIC50", "setting": "[2]; [4]", "result": 0.25, "unit": "µg/mL"},
      {"measurement": "MIC90", "setting": "[2]; [4]", "result": 0.5, "unit": "µg/mL"},
      {"measurement": "potency relative to polymyxin B", "setting": "[2]; MIC50/MIC90, A. baumannii panel", "result": "up to 8 fold"},
      {"measurement": "Number of isolates", "setting": "[2]; isolates with MIC 0.05 µg/mL", "result": 0},
      {"measurement": "Number of isolates", "setting": "[2]; isolates with MIC 0.125 µg/mL", "result": 15},
      {"measurement": "Number of isolates", "setting": "[2]; isolates with MIC 0.25 µg/mL", "result": 126},
      {"measurement": "Number of isolates", "setting": "[2]; isolates with MIC 0.5 µg/mL", "result": 54},
      {"measurement": "Number of isolates", "setting": "[2]; isolates with MIC 1 µg/mL", "result": 8},
      {"measurement": "Number of isolates", "setting": "[2]; isolates with MIC 2 µg/mL", "result": 2},
      {"measurement": "Number of isolates", "setting": "[2]; isolates with MIC 4 µg/mL", "result": 0},
      {"measurement": "Number of isolates", "setting": "[2]; isolates with MIC 8 µg/mL", "result": 1},
      {"measurement": "Number of isolates", "setting": "[2]; isolates with MIC 16 µg/mL", "result": 0},
      {"measurement": "Number of isolates", "setting": "[2]; isolates with MIC 32 µg/mL", "result": 0},
      {"measurement": "Number of isolates", "setting": "[2]; isolates with MIC 64 µg/mL", "result": 1},
      {"measurement": "Number of isolates", "setting": "[2]; isolates with MIC >64 µg/mL", "result": 0},
      {"measurement": "MIC A. baumannii AB5075", "setting": "A. baumannii AB5075 [3]", "result": 0.5, "unit": "µg/mL"},
      {"measurement": "MIC A. baumannii FADDI-AB034", "setting": "A. baumannii FADDI-AB034", "result": "<0.125", "unit": "µg/mL"},
      {"measurement": "viability at 24 h", "setting": "in vitro; Rep1", "result": 52, "unit": "%"},
      {"measurement": "viability at 24 h", "setting": "in vitro; Rep2", "result": 54.3, "unit": "%"},
      {"measurement": "viability at 24 h", "setting": "in vitro; Rep4", "result": 47, "unit": "%"}
    ]}
  ]
}
